# Tests used:
# CDK4/CyclinE1 = CDK4/CyclinE1 (Homo sapiens, UniProt P11802); settings: read-out: CDK4/CyclinE1 IC50
# Procedure: (§1) Measurement of CDK kinase inhibitory activity of the compounds of this disclosure.
# (§2) In vitro inhibitory effect of the compounds of the disclosure on CDK (CDK1, CDK4 and CDK6) kinase activity was tested by the following method.
# (§3) 1.1 Instrument and Kit Information
# (§4) 1.2 Experimental Preparation • 1.2.1 Preparation of Kinase Reaction Buffer I: The 5×Reaction Buffer A (Promega; V307A-C) provided in the kit was mixed and diluted with MILLI-Q® H2O and 0.1 M DTT (dithiothreitol) to give 4× kinase buffer, and then MILLI-Q® H2O was further added to finally formulate the solution into 1× Kinase buffer.
# The final concentration was 50 μM. • b. 40 μl of kinase reaction buffer II was added into B2 to B10 of a 96-well plate, and 50 μl of the above solution was added into B1; • c. […]
# (§5) 1.3 Experimental process: • 1.3.1: 2 μl of compound solutions of various concentrations were taken, added to a 384-well plate, and centrifuged 3 minutes; • 1.3.2: 4 μl of kinase solution was added to each well, centrifuged at 5000 rpm and 18° C. for 10 minutes, and shaken on a plate shaker for 10 minutes; • 1.3.3: 4 μl of mixed solution of substrate and ATP was added to each well, centrifuged at 5000 rpm and 18° C. for 10 minutes, and shaken on a plate shaker at 37° C. for 90 minutes; • 1.3.4: The 384-well plate was taken out, and allowed to stand to room temperature; • 1.3.5: 10 μl of ADP-GLO™ reagent was added to each well, centrifuged at 5000 rpm and 18° C. for 18 minutes, and shaken on a plate shaker at 25° C. for 40 minutes, and then the reaction was stopped; • 1.3.6: 20 μl of kinase detection reagent was added to each well, centrifuged at 5000 rpm and 18° C. for 10 minutes, and shaken on a plate shaker at 25° C. for 30 minutes; and • 1.3.7: M1000pro MICROPLATE READER was used to read […] values.
# (§6) The inhibition rate of each compound at each concentration point was calculated by the formula as follows and curve fitting was performed by GraphPad Prism 5 software to obtain the IC50 value.
# CDK6/CyclinD3 = CDK6/CyclinD3 (Homo sapiens (Human), UniProt Q00534); assay: CDK kinase inhibitory activity, ADP-Glo Kinase Assay, CDK6/CyclinD3; format: biochemical; settings: for CDK1/CDK6 / CDK9/CDK6 / Pim-1/CDK6: ratio of IC50s; for CDK1/CDK6: selectivity for CDK6 over CDK1; for CDK9/CDK6: selectivity for CDK6 over CDK9; for Pim-1/CDK6: selectivity for CDK6 over Pim-1
# Procedure: as §1, §2, §3, §4
# (§7) 1 μl of 10 mM standard substance stock solution was taken and added to 9 μl of kinase reaction buffer I and mixed well; then 90 μl of kinase reaction buffer I was added and mixed well; then 100 μl of kinase reaction buffer I was added and mixed well. The final concentration was 50 μM. • b. 40 μl of kinase reaction buffer II was added into B2 to B10 of a 96-well plate, and 50 μl of the above solution was added into B1; • c. 10 μl of solution was taken from well B1, added into B2, and mixed well; then 10 μl of the resulting solution was taken and added into B3, and dilution was carried out in sequence to B9, so as to obtain control solutions that are diluted by 5-fold sequentially. • (2) Preparation of test compound solution: • a. Test compound solutions at a certain concentration were taken, respectively, diluted with kinase reaction buffer I to a final concentration of 50 μM compound solution; • b. 40 μl of kinase reaction buffer II was added into H2 to H10 of the 96-well plate; and 50 μl of the above solution was added into H1; • c. 10 μl of solution was taken from well H1, added into H2, and mixed well; then 10 μl of the resulting solution was taken and added into H3, and dilution was carried out in sequence to H9, so as to obtain test compound solutions that are diluted by 5-fold sequentially. • 1.2.4 Preparation of a mixed solution of reaction substrate and ATP: • a. Preparation of ATP solution: • 200 μl of 0.1 mM ATP solution: 2 μl of 10 mM ATP was added to 198 μl of kinase reaction buffer I; • 300 μl of 50 μM ATP solution: 150 μl of kinase reaction buffer I was added to 150 μl of the above 0.1 mM ATP solution; • b. Preparation of 300 μl of reaction substrate solution: • 150 μl 1 μg/μl reaction substrate stock solution was added to 150 μl kinase reaction buffer I, and mixed well; • c. The above a/b solutions were mixed to obtain mixed solutions, respectively.
# as §5, §6
# Pim-1 = Pim-1 (Homo sapiens (Human), UniProt P11309); assay: Kinase inhibitory activity on Pim-1; format: biochemical
# Procedure: as §4, §7, §5, §6
# CDK1/CyclinA2 = CDK1/CyclinA2 (Homo sapiens (Human), UniProt P06493); assay: CDK kinase inhibitory activity, ADP-Glo Kinase Assay, CDK1/CyclinA2; format: biochemical
# Procedure: as §1, §2, §3, §4, §7, §5, §6
# CDK9/CyclinD3 = CDK9/CyclinD3 (Homo sapiens (Human), UniProt P50750); assay: Kinase inhibitory activity, ADP-Glo Kinase Assay, CDK9/CyclinD3; format: biochemical
# Procedure: as §3, §4, §7, §5, §6
# [1] = test system: U87-luc orthotopic brain xenograft; assay: Pharmacodynamic study in U87-luc orthotopic brain xenograft model, median survival; format: in vivo, BALB/c nude mice; settings: Temozolomide 3 mg/kg IP Day 0, 7, 14, 21 and 28; survival time range in brackets
# From the text: Pharmacodynamic study of the compound 17 of this disclosure and the combination of compound 17 of the disclosure and temozolomide in a U87-luc orthotopic brain xenograft model
# Adult female BALB/c nude mice were used as test animals. A U87-luc orthotopic brain xenograft model was used to study the effect of representative compound 17 of this disclosure on the median survival of female BALB/c nude mice after intragastric administration.
# Healthy adult female BALB/c nude mice, 8 mice/group, 6-8 weeks old, weighing 18-22 g, purchased from Shanghai SIPPR-BK Laboratory Animal Co., Ltd., Animal Production License No: 2008001658261; 2008001658263. • 7.2.3 Preparation of the test compounds
# An appropriate amount of compound 17 was weighed, and added with 0.1% hydroxyethyl cellulose/0.5% TWEEN®80 as vehicle to 0.3125 mg/ml;
# An appropriate amount of Temozolomide sample was weighed, and added with 0.1% CMC-Na+0.25% TWEEN®80 as vehicle to 0.3 mg/ml.
# Adult female BALB/c nude mice were anesthetized by intraperitoneal injection of sodium pentobarbital at a dose of 80 mg/kg. To relieve pain, animals were injected subcutaneously with buprenorphine at the time points 30 minutes before operation and 6 hours after operation at a dose of 0.1 mg/kg. Animals were observed after anesthesia until all animals had awakened.
# The anesthetized animals were properly fixed, the animals' head skin was sterilized with 70% ethanol, and an approximately 10 mm long incision was made on the right side of the midline from the forehead to the ear line. 3×10^5 U87-luc cells (3 μl, mixture of PBS and Matrigel at a ratio of 4:1) were inoculated at the right frontal lobe that is 2 mm away from the right side of the bregma and is 1 mm away from the front side of the coronal suture in each animal. The incision was sutured with a No. 6 suture, and sterilized with polyvinylpyrrolidone. Animals are kept warm until anabiosis. Six days after tumor cell transplantation, tumor animals were grouped by stratified randomization based on […] signal intensity values, and the average bioluminescence reached 2.812E+07 photons/sec when the groups were administered in groups. Different animal groups were administered at different doses for a total of 35 days.
IC50 (CDK6/CyclinD3) [nM],CDK1/CDK6 (CDK6/CyclinD3),CDK9/CDK6 (CDK6/CyclinD3),Pim-1/CDK6 (CDK6/CyclinD3),IC50 (Pim-1) [nM],IC50 (CDK1/CyclinA2) [nM],IC50 (CDK9/CyclinD3) [nM],Structure (SMILES),IC50 (CDK4/CyclinE1) [nM],Medium survival [1]
,,,,,,,"Cn1nnc2c(C(N)=O)ncn2c1=O [Temozolomide, reference compound]",,47(38-83) days
20.4,13.13,0.71,8.51,174,268,14.4,"CCN1CCN(Cc2ccc(Nc3ncc(F)c(-c4ccc5c(c4)C4(CCCC4)C(C)=N5)n3)nc2)CC1 [Example 9, N-(5-((4-ethylpiperazin-1-yl)methyl)pyridin-2-yl)-5-fluoro-4-(2′-methylspiro [cyclopentane-1,3′-indol]-5′-yl)pyrimidine-2-amino]",,
0.39,838.46,6.56,5.69,2.22,327,2.56,"CC1=Nc2c(F)cc(-c3nc(Nc4ccc(C5CCNCC5)cn4)ncc3F)cc2C12CCCC2 [Example 13, 5-Fluoro-4-(7′-fluoro-2′-methylspiro[cyclopentane-1,3′-indol]-5′-yl)-N-(5-(piperidin-4-yl)pyridin-2-yl)pyrimidine-2-amino]",,

Structure (SMILES),IC50 (CDK6/CyclinD3) [nM],CDK1/CDK6 (CDK6/CyclinD3),CDK9/CDK6 (CDK6/CyclinD3),Pim-1/CDK6 (CDK6/CyclinD3),IC50 (Pim-1) [nM],IC50 (CDK1/CyclinA2) [nM],IC50 (CDK9/CyclinD3) [nM],IC50 (CDK4/CyclinE1) [nM],Medium survival [1]
"CC1=Nc2c(F)cc(-c3nc(Nc4ccc(N5CCNCC5)cn4)ncc3F)cc2C12CCCC2 [Example 6, 5-fluoro-4-(7′-fluoro-2′-methylspiro[cyclopentane-1,3′-indol]-5′-yl)-N-(5-(piperazin-1-yl)pyridin-2-yl)pyrimidine-2-amino]",6.45,23.59,0.06,2.33,15.1,152,0.42,80.9,

# Source: US11091476B2, “Protein kinase inhibitors, preparation method and medical use thereof” (Gan & Lee Pharmaceuticals, priority 2015, dated 2021)
